Laboratory results from ChEMBL document CHEMBL1129665, “2-Sulfonyl-4-chloroanilino moiety: a potent pharmacophore for the anti-human immunodeficiency virus type 1 activity of pyrrolyl aryl sulfones” (J Med Chem, 1996).

Tests used:
MT4 [1] = test: Concentration required to reduce the viability of mock-infected MT-4 cells by 50%; assay type: functional; conditions: Homo sapiens
MT4 [2] = test: Effective concentration against HIV-1 induced cytopathogenicity in MT-4 cells; assay type: functional, cell-based; conditions: Homo sapiens
[3] = molecular target: Human immunodeficiency virus type 1 reverse transcriptase (Human immunodeficiency virus 1, UniProt Q72547, L100I); test: Inhibitory activity against HIV rRT activity in HIV-1 mutant resistant to TIBO(L100I) strain
[4] = molecular target: Human immunodeficiency virus type 1 reverse transcriptase (Human immunodeficiency virus 1, UniProt Q72547, Y181C); test: Inhibitory activity against HIV rRT activity in mutant HIV-1 strain resistant to Nevirapine (Y181C)
[5] = molecular target: Human immunodeficiency virus type 1 reverse transcriptase (Human immunodeficiency virus 1, UniProt Q72547); test: Inhibitory activity against HIV rRT activity in wild type IIIB strain
[6] = molecular target: Human immunodeficiency virus type 2 pol protein (Human immunodeficiency virus 2, UniProt P88142); test: Inhibitory activity against HIV rRT activity in HIV-2
MT4 [7] = test: Selectivity index expressed as the ratio of CC50/ EC50; assay type: functional, Homo sapiens

Sequence of Human immunodeficiency virus type 2 pol protein (P88142 whole entry): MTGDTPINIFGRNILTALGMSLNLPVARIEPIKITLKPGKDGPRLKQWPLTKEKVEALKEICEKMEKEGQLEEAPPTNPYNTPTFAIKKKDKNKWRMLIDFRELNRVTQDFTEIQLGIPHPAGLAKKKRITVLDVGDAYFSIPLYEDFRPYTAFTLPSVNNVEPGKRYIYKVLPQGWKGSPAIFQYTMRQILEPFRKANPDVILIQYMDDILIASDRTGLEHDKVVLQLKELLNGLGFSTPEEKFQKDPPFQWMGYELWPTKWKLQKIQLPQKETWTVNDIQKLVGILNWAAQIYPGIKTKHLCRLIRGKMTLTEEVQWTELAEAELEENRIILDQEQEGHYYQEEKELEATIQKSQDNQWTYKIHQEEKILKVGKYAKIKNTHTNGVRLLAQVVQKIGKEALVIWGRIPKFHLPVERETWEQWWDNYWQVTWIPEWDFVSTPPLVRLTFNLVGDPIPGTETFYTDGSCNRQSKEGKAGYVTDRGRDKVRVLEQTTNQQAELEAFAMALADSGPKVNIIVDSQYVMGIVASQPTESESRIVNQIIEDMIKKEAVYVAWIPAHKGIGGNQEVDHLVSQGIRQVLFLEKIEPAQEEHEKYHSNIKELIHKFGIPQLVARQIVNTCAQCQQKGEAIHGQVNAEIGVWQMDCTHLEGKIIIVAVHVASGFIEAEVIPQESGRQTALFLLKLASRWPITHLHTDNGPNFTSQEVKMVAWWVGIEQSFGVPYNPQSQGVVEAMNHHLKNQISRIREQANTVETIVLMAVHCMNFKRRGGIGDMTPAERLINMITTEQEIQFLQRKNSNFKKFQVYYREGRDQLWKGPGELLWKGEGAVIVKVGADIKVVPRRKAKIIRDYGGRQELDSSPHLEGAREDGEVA

| SMILES | CC50 (MT4 [1]) | EC50 (MT4 [2]) | IC50 [3] | IC50 [4] | IC50 [5] | IC50 [6] | Ratio (MT4 [7]) |
| --- | --- | --- | --- | --- | --- | --- | --- |
| O=C(OCc1ccccc1)c1cccn1S(=O)(=O)c1cc(Cl)ccc1[N+](=O)[O-] | 300 µM | > 300 µM | – | – | – | – | – |
| COC(=O)c1cccn1S(=O)(=O)c1ccc(Cl)cc1[N+](=O)[O-] | > 300 µM | > 300 µM | – | – | – | – | – |
| CNc1ccccc1S(=O)(=O)n1cccc1 | > 300 µM | > 300 µM | – | – | – | – | – |
| O=C(O)c1cccn1S(=O)(=O)c1ccccc1Cl | > 300 µM | 247 µM | – | – | – | – | – |
| CC(C)=CCN1Cc2cccc3nc(S)n(c23)C[C@H]1C | – | – | > 20 µM | 9 µM | 0.9 µM | > 20 µM | – |
| CCOC(=O)c1cccn1S(=O)(=O)c1cc(Cl)c(Cl)cc1N | > 300 µM | 12 µM | – | – | – | – | >25 |
| CCOC(=O)c1cccn1S(=O)(=O)c1ccccc1Cl | 141 µM | 27 µM | – | – | – | – | 5 |
| O=[N+]([O-])c1cc(Cl)ccc1S(=O)(=O)n1ccc2ccccc21 | 8 µM | > 8 µM | – | – | – | – | – |
| CCOC(=O)c1cc2ccccc2n1S(=O)(=O)c1cc(Cl)ccc1N | 50 µM | 1.8 µM | – | – | – | – | 28 |
| CCOC(=O)c1cccn1S(=O)(=O)c1cc(Cl)ccc1N | > 300 µM | 0.14 µM | 8.5 µM | 7.5 µM | 0.4 µM | > 20 µM | >2140 |
| CCOC(=O)c1cccn1S(=O)(=O)c1cc(Cl)ccc1NC(C)=O | > 300 µM | 1 µM | > 20 µM | > 20 µM | > 20 µM | > 20 µM | >=300 |
| CC(C)OC(=O)c1cccn1S(=O)(=O)c1cc(Cl)ccc1[N+](=O)[O-] | > 300 µM | 30 µM | – | – | – | – | >10 |
| CCOC(=O)c1cccn1S(=O)(=O)c1cc(Cl)ccc1[N+](=O)[O-] | 12 µM | > 12 µM | – | – | – | – | – |
| Nc1cc(Cl)ccc1S(=O)(=O)n1cccc1 | 75 µM | > 75 µM | – | – | – | – | – |
| CCOC(=O)c1cccn1S(=O)(=O)c1cc(N)ccc1Cl | 72 µM | > 72 µM | – | – | – | – | – |
| COC(=O)c1cccn1S(=O)(=O)c1ccc(Cl)cc1N | 248 µM | > 248 µM | – | – | – | – | – |
| O=C(NCc1ccccc1)c1cccn1S(=O)(=O)c1ccccc1F | > 300 µM | 40 µM | – | – | – | – | 7 |
| O=[N+]([O-])c1ccc(Cl)c(S(=O)(=O)n2cccc2)c1 | 2 µM | > 2 µM | – | – | – | – | – |
| CCOC(=O)c1cccn1S(=O)(=O)c1ccc(Cl)cc1[N+](=O)[O-] | > 300 µM | 15 µM | – | – | – | – | >20 |
| O=CNNC(=O)c1cccn1S(=O)(=O)c1ccccc1F | 300 µM | > 300 µM | – | – | – | – | – |
| CCOC(=O)CC(=O)Nc1ccc(Cl)cc1S(=O)(=O)n1cccc1C(=O)OCC | 290 µM | 2.6 µM | > 20 µM | > 20 µM | > 20 µM | > 20 µM | 111 |
| Cc1ccnc2c1NC(=O)c1cccnc1N2C1CC1 [NEVIRAPINE] | < 300 µM | – | – | – | – | > 20 µM | – |
| O=[N+]([O-])c1ccccc1S(=O)(=O)n1ccc2ccccc21 | 24 µM | 5 µM | – | – | – | – | 5 |

| SMILES | CC50 (MT4 [1]) | EC50 (MT4 [2]) | IC50 [3] | IC50 [4] | IC50 [5] | IC50 [6] | Ratio (MT4 [7]) |
| --- | --- | --- | --- | --- | --- | --- | --- |
| CC(=O)c1cccn1S(=O)(=O)c1ccccc1[N+](=O)[O-] | 100 µM | 2 µM | – | – | – | – | 50 |
| O=[N+]([O-])c1ccc(Cl)cc1S(=O)(=O)n1ccc2ccccc21 | 2 µM | > 2 µM | – | – | – | – | – |
| Nc1ccc(Cl)cc1S(=O)(=O)n1ccc2ccccc21 | 1 µM | 1 µM | – | – | – | – | – |
| O=[N+]([O-])c1cc(Cl)ccc1S(=O)(=O)n1cccc1 | 15 µM | > 15 µM | – | – | – | – | – |
| CCOC(=O)c1cccn1S(=O)(=O)c1ccc(Cl)cc1N | 238 µM | > 238 µM | – | – | – | – | – |
| O=C(NC1CC1)c1cccn1S(=O)(=O)c1ccccc1F | 300 µM | > 300 µM | – | – | – | – | – |
| O=C(O)c1cccn1S(=O)(=O)c1ccccc1F | > 300 µM | > 300 µM | – | – | – | – | – |
| CCOC(=O)c1cccn1S(=O)(=O)c1ccccc1[N+](=O)[O-] | > 300 µM | 15 µM | – | – | – | – | >20 |
| COC(=O)c1cccn1S(=O)(=O)c1cc(Cl)ccc1[N+](=O)[O-] | 12 µM | 10 µM | – | – | – | – | 1.2 |
| CCOC(=O)c1cccn1S(=O)(=O)c1cc([N+](=O)[O-])ccc1Cl | 6 µM | > 6 µM | – | – | – | – | – |
| C=CCOC(=O)c1cccn1S(=O)(=O)c1cc(Cl)ccc1N | 100 µM | 0.4 µM | > 20 µM | 14 µM | 0.9 µM | > 20 µM | 250 |
| COC(=O)c1cccn1S(=O)(=O)c1cc(Cl)ccc1N | > 300 µM | 0.18 µM | 7.4 µM | 6.9 µM | 0.45 µM | > 20 µM | >1666 |
| CCN(CC)CCOC(=O)c1cccn1S(=O)(=O)c1cc(Cl)ccc1[N+](=O)[O-] | 30 µM | > 30 µM | – | – | – | – | – |
| CCOC(=O)c1cccn1S(=O)(=O)c1ccccc1F | 132 µM | 13 µM | – | – | – | – | 10 |
| CCOC(=O)c1cccn1S(=O)(=O)c1cc(Cl)ccc1NC(=O)CC | > 300 µM | 1 µM | > 20 µM | > 20 µM | > 20 µM | > 20 µM | >300 |
| CCN(CC)CCOC(=O)c1cccn1S(=O)(=O)c1cc(Cl)ccc1N | 162 µM | 12 µM | – | – | – | – | 13.5 |
| CCOC(=O)c1cccn1S(=O)(=O)c1cc(C)ccc1N | > 300 µM | 1.7 µM | > 20 µM | > 20 µM | 4 µM | > 20 µM | >176 |
| Nc1ccc(Cl)c(S(=O)(=O)n2ccc3ccccc32)c1 | > 300 µM | 150 µM | – | – | – | – | >2 |
| Nc1ccc(Cl)cc1S(=O)(=O)n1cccc1C(=O)OCc1ccccc1 | > 300 µM | 150 µM | – | – | – | – | >2 |
| Nc1ccc(Cl)c(S(=O)(=O)n2cccc2)c1 | 91 µM | > 91 µM | – | – | – | – | – |
| O=[N+]([O-])c1ccc(Cl)cc1S(=O)(=O)n1cccc1 | 2 µM | > 2 µM | – | – | – | – | – |
| CCCOC(=O)c1cccn1S(=O)(=O)c1cc(Cl)ccc1N | 110 µM | 0.22 µM | 10 µM | 5 µM | 0.4 µM | > 20 µM | 500 |
| Nc1ccc(Cl)cc1S(=O)(=O)n1cccc1 | 165 µM | 95 µM | – | – | – | – | 2 |

| SMILES | CC50 (MT4 [1]) | EC50 (MT4 [2]) | IC50 [3] | IC50 [4] | IC50 [5] | IC50 [6] | Ratio (MT4 [7]) |
| --- | --- | --- | --- | --- | --- | --- | --- |
| COC(=O)c1cccn1S(=O)(=O)c1cc([N+](=O)[O-])ccc1Cl | 12 µM | > 12 µM | – | – | – | – | – |
| O=[N+]([O-])c1ccccc1S(=O)(=O)n1cccc1 | 36 µM | > 36 µM | – | – | – | – | – |
| O=[N+]([O-])c1ccc(Cl)c(S(=O)(=O)n2ccc3ccccc32)c1 | 3 µM | > 3 µM | – | – | – | – | – |
| CCCOC(=O)c1cccn1S(=O)(=O)c1cc(Cl)ccc1[N+](=O)[O-] | 10 µM | > 10 µM | – | – | – | – | – |
| Cc1cn([C@H]2C[C@H](N=[N+]=[N-])[C@@H](CO)O2)c(=O)[nH]c1=O [ZIDOVUDINE] | > 20 µM | – | – | – | – | – | >2000 |
| CCOC(=O)c1cccn1S(=O)(=O)c1cc(Cl)ccc1NC | 300 µM | > 300 µM | – | – | – | – | – |
| CCCCNc1ccc(Cl)cc1S(=O)(=O)n1cccc1C(=O)OCC | > 300 µM | > 300 µM | – | – | – | – | – |
| CCOC(=O)c1cccn1S(=O)(=O)c1cc(C)ccc1[N+](=O)[O-] | > 300 µM | 9.8 µM | > 20 µM | > 20 µM | 5 µM | > 20 µM | >30.6 |
| COC(=O)c1cccn1S(=O)(=O)c1ccccc1[N+](=O)[O-] | > 300 µM | 5 µM | – | – | – | – | >60 |
| CCNc1ccc(Cl)cc1S(=O)(=O)n1cccc1C(=O)OCC | 300 µM | > 300 µM | – | – | – | – | – |
| CCOC(=O)c1cccn1S(=O)(=O)c1cc(Cl)c(Cl)cc1[N+](=O)[O-] | 5 µM | > 5 µM | – | – | – | – | – |
| COC(=O)c1cccn1S(=O)(=O)c1cc(N)ccc1Cl | 150 µM | 75 µM | – | – | – | – | 2 |
| Nc1ccccc1S(=O)(=O)n1cccc1 | 228 µM | > 228 µM | – | – | – | – | – |
| CCOC(=O)c1cccn1S(=O)(=O)c1cc(Cl)ccc1NC=O | > 300 µM | 1 µM | > 20 µM | > 20 µM | > 20 µM | > 20 µM | >300 |
| C=CCOC(=O)c1cccn1S(=O)(=O)c1cc(Cl)ccc1[N+](=O)[O-] | 4.3 µM | > 4.3 µM | – | – | – | – | – |
| CCOC(=O)c1cccn1S(=O)(=O)c1ccccc1N | > 300 µM | 10 µM | – | – | – | – | >30 |
| O=C(NC1CCCCC1)c1cccn1S(=O)(=O)c1ccccc1F | 300 µM | > 300 µM | – | – | – | – | – |
| CCOC(=O)c1cc2ccccc2n1S(=O)(=O)c1cc(Cl)ccc1[N+](=O)[O-] | > 100 µM | > 100 µM | – | – | – | – | – |
| Nc1ccccc1S(=O)(=O)n1ccc2ccccc21 | 58 µM | 11 µM | – | – | – | – | 5 |
| COC(=O)c1cccn1S(=O)(=O)c1ccccc1N | > 300 µM | 22 µM | – | – | – | – | >14 |
| CC(C)OC(=O)c1cccn1S(=O)(=O)c1cc(Cl)ccc1N | > 300 µM | 0.14 µM | 14 µM | 8 µM | 0.27 µM | > 20 µM | >2140 |
| Nc1cc(Cl)ccc1S(=O)(=O)n1ccc2ccccc21 | 37 µM | > 37 µM | – | – | – | – | – |
